Counter-ions that a name gives are not always drawn.
Tests used:
5-lipoxygenase [1] = molecular target: T1, 5-lipoxygenase (Rattus norvegicus, UniProt P12527); assay: inhibition of 5-HETE synthesis by rat glycogen elicited polymorphonuclear leukocytes; type: cell-based; conditions: 10 μM, rat PMN, negative = potentiation of 5-HETE synthesis
T1 construct: Peritoneal PMN are obtained from female Wistar rats (150-250 g); endogenous in cells; host or cells: rat glycogen-elicited peritoneal polymorphonuclear leukocytes, intact
T1 sequence (P12527 1-673): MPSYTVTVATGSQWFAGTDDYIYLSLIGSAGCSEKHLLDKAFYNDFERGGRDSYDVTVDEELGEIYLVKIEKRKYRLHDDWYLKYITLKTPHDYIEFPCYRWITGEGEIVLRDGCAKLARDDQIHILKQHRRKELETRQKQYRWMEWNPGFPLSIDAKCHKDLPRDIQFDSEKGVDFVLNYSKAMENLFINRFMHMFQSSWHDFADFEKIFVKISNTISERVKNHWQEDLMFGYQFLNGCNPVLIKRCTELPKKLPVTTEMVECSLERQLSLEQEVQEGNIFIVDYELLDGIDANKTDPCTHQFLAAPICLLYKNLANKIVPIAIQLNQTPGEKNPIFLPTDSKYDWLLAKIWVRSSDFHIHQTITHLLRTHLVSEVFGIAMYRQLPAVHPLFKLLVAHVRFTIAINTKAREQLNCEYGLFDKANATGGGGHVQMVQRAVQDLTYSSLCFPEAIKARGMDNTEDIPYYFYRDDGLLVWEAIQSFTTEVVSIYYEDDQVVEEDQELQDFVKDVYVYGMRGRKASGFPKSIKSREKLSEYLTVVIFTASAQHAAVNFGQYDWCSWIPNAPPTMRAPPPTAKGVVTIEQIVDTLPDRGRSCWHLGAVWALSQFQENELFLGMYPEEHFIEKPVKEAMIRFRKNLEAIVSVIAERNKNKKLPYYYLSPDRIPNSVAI
Summary of the method: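 Peritoneal PMN from female Wistar rats given i.p. glycogen 24 h earlier were preincubated with compound for 10 min at 37° C (2×10^7 cells/ml, 10 mM L-cysteine). They were then stimulated 10 min with 10 μM A23187 plus 0.5 μM [14C]arachidonic acid. 5-HETE was separated by TLC and quantified by scintillation.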

5-lipoxygenase [2] = molecular target: T2, 5-lipoxygenase (Homo sapiens, UniProt P09917); assay: inhibition of 5-lipoxygenase in human whole blood (LTB4); type: cell-based; conditions: human whole blood
T2 construct: Blood is obtained in 50-100 ml quantities from male donors; endogenous in cells; host or cells: human whole blood (leukocytes) from male donors
T2 sequence (P09917 1-674): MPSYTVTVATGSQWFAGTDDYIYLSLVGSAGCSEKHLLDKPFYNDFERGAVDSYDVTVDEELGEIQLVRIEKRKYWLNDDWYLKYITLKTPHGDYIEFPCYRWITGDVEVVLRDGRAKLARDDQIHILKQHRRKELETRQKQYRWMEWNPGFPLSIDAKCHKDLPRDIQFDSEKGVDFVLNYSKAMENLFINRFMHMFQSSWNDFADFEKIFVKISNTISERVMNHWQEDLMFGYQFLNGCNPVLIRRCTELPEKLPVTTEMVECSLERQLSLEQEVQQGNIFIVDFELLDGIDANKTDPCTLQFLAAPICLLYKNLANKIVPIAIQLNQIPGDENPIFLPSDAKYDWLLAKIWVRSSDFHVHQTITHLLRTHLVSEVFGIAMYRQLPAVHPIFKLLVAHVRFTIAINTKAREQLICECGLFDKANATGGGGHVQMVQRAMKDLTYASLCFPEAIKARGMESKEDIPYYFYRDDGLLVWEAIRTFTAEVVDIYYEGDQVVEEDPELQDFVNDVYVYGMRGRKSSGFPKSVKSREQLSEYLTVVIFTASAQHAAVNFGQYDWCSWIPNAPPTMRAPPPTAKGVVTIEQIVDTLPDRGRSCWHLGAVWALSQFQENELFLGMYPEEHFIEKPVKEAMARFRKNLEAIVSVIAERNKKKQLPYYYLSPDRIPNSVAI
Summary of the method: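 Donor whole blood preincubated with compound (final 0.1% DMSO) 10 min at 37 °C, then stimulated with 30 μM calcium ionophore A23187 for 20 min at 37 °C; stopped on ice with 10 mM EGTA. Plasma LTB4 measured by RIA or ELISA, expressed per 10^6 neutrophils; IC50 by regression analysis.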

inhibition at 10 µM (5-lipoxygenase [1]; read-out: % Inhibition of 5-LO (as 5-HETE)) [%]	inhibition at 5 µM (5-lipoxygenase [2]; 5 μM, read-out: % Inhibition of LTB4) [%]	% Inhibition of 5-LO (as 5-HETE) (5-lipoxygenase [1]) [%]	inhibition at 25 µM (5-lipoxygenase [2]; 25 μM) [%]	Structure (SMILES)
100	44	–	–	C[C@H](C(=O)N(C)O)c1ccc2cc(OCc3ccc4ccccc4n3)ccc2c1 [Example 24, (S)-N-Hydroxy-α-N-dimethyl-6-(2-quinolinylmethoxy)-2-naphthaleneacetamide]
–	–	85	19	C[C@H](C(=O)O)c1ccc2cc(OCc3ccc4ccccc4n3)ccc2c1 [Example 17, S-(α)-α-Methyl-6-(2-quinolinylmethoxy)-2-naphthaleneacetic acid, tromethanime salt]

— patent US5208344A, “Naphthalenepropionic acid derivatives as anti-inflammatory/antiallergic agents” (American Home Products Corporation, priority 1991, dated 1993)
